Where a name gives a salt, the structure may show the parent alone.
Assays:
[1] = tested on: HIF1α and HIF2α; experiment: HIFα induction in tissues of treated mice (immunoblotting); format: in vivo, C57BL/6 mice; settings: i.p.; for HIF1α and HIF2α induction in liver, kidney and heart / HIF1α and HIF2α induction in the brain: equimolar: IOX2 37.7 mg/kg, IOX4 35 mg/kg, DMOG 75 mg/kg
Procedure: All animal experiments were performed on male C57BL/6 mice aged 3 months (purchased from Harlan Laboratories, Blackthorn) housed in specific pathogen free conditions with free access to water and standard chow. Mice were injected intraperitonially with the inhibitor (dissolved in Hanks’ buffered saline solution, pH 7.0, 5% DMSO final) or vehicle at the indicated doses for the indicated time as previously described. Tissues from treated mice were harvested and ‘snap frozen’ with liquid nitrogen before being stored at -80°C. For immunoblotting, a portion of the tissues was removed, weighed and homogenised in urea/SDS buffer before being analysed by immunoblotting with HIF1α rabbit polyclonal antibody (10006421, Cayman Chemical, 1:1000) or HIF2α rabbit polyclonal antibody (PM9 [27], 1:1000). For RNA extraction, tissues were ‘snap frozen’ in liquid nitrogen immediately after harvesting, then ground to a fine powder using a cryogenic tissue pulveriser, keeping samples on dry ice at all times and processed for total RNA extraction using the mirVana miRNA isolation kit (AM1560, Life Technologies) according to the manufacturer’s protocol for processing frozen tissues. All animal procedures were compliant with the UK Home Office Animals (Scientific Procedures) Act 1986 and Local Ethical Review Procedures (University of Oxford Medical Sciences Division Ethical Review Committee).
The inhibitors or vehicle controls were injected intraperitonially into wild type C57BL/6 mice and sacrificed after the indicated treatment time before harvesting their tissues to be analysed for HIFα levels by immunoblotting.

[2] = molecular target: PHD2 (Homo sapiens, UniProt Q9GZT9); experiment: Competition-based NMR reporter ligand displacement assay ([13C]-2OG / [13C]-CODD); format: binding; settings: 50 μM apo-PHD2, 400 μM Zn(II), 400 μM competitor
PHD2, sequence (Q9GZT9 whole entry): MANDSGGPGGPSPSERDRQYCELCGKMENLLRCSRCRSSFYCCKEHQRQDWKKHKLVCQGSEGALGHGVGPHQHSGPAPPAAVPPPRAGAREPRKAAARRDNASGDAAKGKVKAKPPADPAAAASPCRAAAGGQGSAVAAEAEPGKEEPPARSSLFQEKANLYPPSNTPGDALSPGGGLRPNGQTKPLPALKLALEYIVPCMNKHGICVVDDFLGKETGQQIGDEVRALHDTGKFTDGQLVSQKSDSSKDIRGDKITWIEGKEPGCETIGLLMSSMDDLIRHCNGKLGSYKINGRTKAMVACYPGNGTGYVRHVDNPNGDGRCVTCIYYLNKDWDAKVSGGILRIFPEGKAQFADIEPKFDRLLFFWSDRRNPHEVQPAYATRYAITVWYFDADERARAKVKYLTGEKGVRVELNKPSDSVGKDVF
Procedure: For 2OG displacement assays, selective ^1H-^13C 1D-HSQC experiments were conducted at 700 MHz using a Bruker Avance III spectrometer equipped with an inverse TCI cryoprobe optimized for ^1H observation. The CLIP-HSQC sequence was used (without ^13C decoupling). Typical experimental parameters were as follows: acquisition time 0.58 s, relaxation delay 2 s, number of transients 256−1600. The 1JCH was set to 160 Hz. For the selective version of the experiment, a 6.8 ms Q3 180 degree pulse was used, and selective irradiation was applied at the appropriate [^13C] chemical shift. Three millimeter MATCH tubes with a 160 μL final sample volume were used. Solutions were buffered using Tris-D11 50 mM (pH 7.5) dissolved in 90% H2O and 10% D2O. Assays were conducted at 298 K in solutions typically containing 50 μM apo-PHD2, 400 μM Zn(II), 50 μM 1,2,3,4-[^13C]-2OG or [^13C]-labeled CODD (uniformly [^13C]-labeled at proline-564) and 400 μM competitor (except unlabeled CODD competitor used at 800 μM). Selective irradiation was applied at 30.5 ppm for [^13C]-2OG and 24.25 ppm for [^13C]-labeled CODD. Percentage displacement was calculated according to equation: (I−I0)/(Iblank−I0) where I 0 is the intensity of the reporter in the presence of protein but without inhibitor, I is the intensity of the reporter in the presence of protein and inhibitor, and I blank is the intensity of the reporter without protein or inhibitor.
The results reveal that the previously described inhibitor IOX2 displaces 2OG from PHD2 (S3A Fig), consistent with its predicted binding mode. […] Previous crystallographic studies have shown that the HIF substrate can still bind even when the 2OG active site is occupied by some, but not all, inhibitors.

[3] = molecular target: JMJD3 (KDM6B) (Homo sapiens, UniProt O15054); experiment: KDM AlphaScreen assay, JMJD3
JMJD3 (KDM6B), sequence (O15054 whole entry): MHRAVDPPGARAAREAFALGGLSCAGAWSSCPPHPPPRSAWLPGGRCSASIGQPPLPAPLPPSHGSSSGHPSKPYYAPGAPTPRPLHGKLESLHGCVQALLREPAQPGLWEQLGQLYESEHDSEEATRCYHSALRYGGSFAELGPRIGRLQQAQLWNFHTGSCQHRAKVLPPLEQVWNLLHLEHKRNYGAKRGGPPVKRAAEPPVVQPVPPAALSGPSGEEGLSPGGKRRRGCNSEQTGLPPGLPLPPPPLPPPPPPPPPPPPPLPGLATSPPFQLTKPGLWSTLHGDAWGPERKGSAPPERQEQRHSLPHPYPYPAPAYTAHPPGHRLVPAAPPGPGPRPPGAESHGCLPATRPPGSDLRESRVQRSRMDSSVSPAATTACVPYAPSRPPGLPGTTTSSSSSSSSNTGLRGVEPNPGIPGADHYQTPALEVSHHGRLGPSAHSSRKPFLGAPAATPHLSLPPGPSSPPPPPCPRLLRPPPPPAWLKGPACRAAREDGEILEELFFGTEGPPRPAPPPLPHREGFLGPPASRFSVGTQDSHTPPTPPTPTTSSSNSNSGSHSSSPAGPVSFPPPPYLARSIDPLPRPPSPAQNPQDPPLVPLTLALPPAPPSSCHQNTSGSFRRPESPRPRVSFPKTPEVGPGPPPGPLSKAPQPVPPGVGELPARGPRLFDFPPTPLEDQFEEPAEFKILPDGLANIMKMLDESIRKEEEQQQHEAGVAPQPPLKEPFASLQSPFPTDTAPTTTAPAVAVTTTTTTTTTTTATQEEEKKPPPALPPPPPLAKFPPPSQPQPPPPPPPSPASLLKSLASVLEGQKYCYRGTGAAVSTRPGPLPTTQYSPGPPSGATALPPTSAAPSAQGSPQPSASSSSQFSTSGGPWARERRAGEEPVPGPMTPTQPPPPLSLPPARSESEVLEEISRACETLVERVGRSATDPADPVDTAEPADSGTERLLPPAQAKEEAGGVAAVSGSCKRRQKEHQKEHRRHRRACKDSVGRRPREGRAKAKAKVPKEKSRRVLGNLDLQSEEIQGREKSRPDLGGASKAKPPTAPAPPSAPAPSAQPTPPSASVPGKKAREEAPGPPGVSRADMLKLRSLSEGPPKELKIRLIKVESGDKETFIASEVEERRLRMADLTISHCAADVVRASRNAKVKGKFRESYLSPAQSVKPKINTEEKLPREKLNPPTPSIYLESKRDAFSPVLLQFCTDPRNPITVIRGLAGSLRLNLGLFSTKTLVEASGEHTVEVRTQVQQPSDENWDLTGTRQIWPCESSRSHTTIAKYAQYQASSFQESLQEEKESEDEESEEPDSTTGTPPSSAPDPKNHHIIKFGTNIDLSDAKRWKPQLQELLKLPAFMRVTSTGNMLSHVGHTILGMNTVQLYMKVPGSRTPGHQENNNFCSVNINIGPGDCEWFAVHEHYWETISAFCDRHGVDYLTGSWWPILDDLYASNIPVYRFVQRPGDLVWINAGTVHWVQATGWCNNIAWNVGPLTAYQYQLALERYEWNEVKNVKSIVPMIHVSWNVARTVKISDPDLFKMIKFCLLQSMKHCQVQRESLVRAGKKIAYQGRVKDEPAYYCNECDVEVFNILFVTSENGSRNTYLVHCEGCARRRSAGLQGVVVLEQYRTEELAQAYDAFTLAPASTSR
Procedure: (§1) Inhibition assays for PHD2 (AlphaScreen) [9], the KDMs (AlphaScreen) [17], BBOX [18] and FTO [19] were carried out as previously described. […] IC50 values were calculated using nonlinear regression with normalized dose-response fit using GraphPad Prism 5.

[4] = molecular target: JARID1C (KDM5C) (Homo sapiens, UniProt P41229); experiment: KDM AlphaScreen assay, JARID1C
JARID1C (KDM5C), sequence (P41229 whole entry): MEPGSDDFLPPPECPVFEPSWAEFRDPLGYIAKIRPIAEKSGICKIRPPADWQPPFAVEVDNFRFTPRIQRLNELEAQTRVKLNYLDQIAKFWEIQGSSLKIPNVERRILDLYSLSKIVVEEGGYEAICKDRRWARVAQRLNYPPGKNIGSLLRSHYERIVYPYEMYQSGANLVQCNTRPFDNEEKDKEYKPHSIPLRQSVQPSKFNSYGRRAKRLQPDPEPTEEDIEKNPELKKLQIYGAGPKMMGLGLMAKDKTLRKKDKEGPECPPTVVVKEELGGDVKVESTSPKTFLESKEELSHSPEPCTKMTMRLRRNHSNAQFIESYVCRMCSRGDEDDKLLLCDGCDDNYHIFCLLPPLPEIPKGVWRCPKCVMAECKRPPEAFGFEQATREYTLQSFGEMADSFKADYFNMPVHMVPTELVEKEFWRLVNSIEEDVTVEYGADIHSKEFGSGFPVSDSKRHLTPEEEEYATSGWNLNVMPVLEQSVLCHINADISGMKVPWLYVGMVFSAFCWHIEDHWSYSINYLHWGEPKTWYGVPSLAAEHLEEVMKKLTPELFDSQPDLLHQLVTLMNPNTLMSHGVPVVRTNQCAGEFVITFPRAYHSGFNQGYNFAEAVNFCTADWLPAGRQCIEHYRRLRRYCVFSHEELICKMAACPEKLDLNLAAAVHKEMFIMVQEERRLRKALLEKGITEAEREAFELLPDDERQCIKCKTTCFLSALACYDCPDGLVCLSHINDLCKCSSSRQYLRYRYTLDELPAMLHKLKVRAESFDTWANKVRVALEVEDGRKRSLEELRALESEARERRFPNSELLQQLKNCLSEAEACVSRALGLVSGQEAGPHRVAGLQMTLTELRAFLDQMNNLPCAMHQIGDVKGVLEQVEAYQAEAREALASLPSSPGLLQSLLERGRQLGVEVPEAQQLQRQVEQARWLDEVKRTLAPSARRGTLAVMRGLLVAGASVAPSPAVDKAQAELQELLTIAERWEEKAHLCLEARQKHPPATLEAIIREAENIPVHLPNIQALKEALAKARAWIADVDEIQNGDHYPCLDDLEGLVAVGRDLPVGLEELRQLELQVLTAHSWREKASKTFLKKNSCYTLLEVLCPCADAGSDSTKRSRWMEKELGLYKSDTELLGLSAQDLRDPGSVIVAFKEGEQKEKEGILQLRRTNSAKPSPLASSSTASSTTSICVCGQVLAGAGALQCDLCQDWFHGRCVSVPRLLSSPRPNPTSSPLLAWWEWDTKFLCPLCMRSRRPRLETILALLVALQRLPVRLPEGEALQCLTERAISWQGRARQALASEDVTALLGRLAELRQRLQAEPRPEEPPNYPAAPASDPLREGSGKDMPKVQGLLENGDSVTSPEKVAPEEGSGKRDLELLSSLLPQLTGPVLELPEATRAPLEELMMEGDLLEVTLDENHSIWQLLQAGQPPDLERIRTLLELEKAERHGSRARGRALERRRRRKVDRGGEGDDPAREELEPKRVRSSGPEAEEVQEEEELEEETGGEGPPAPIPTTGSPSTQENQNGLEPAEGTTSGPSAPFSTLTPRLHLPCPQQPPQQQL
Procedure: as §1

[5] = molecular target: T1, JMJD2A (KDM4A) (Homo sapiens, UniProt O75164); experiment: KDM AlphaScreen assay, JMJD2A
T1 sequence (O75164 1-1064): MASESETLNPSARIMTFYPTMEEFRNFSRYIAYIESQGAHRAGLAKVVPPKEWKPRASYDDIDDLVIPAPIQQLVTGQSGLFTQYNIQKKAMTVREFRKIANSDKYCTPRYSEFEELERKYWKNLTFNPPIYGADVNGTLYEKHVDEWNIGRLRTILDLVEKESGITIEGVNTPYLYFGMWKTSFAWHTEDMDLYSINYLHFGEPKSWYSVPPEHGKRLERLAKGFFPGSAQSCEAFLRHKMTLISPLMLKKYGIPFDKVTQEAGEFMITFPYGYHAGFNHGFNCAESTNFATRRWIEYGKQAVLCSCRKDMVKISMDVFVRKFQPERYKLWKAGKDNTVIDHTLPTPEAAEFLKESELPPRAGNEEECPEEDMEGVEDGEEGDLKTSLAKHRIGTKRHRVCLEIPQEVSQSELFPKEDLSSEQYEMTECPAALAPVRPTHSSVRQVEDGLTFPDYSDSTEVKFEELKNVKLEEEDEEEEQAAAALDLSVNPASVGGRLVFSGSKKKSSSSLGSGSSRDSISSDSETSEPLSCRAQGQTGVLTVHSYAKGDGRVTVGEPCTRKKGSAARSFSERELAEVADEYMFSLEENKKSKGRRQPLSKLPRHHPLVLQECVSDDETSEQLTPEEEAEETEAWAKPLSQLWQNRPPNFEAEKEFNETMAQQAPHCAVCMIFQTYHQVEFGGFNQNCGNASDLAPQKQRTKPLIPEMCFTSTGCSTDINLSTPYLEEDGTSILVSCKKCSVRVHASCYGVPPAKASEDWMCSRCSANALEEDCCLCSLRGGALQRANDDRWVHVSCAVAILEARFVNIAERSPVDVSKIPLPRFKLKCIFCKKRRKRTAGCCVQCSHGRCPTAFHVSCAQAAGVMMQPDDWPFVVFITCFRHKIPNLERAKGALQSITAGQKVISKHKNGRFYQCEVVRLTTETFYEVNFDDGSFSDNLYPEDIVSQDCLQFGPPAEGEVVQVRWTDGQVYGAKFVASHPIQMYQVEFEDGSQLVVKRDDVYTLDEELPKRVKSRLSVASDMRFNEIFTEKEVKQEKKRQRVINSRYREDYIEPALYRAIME
Procedure: Inhibition assays for PHD2 (AlphaScreen) [9], the KDMs (AlphaScreen) [17], BBOX [18] and FTO [19] were carried out as previously described. N-Terminally biotinylated 19-residue human HIF1α CODD peptide ([sequence]) used in the PHD2 inhibition assays was from GL Biochem (Shanghai). IC50 values were calculated using nonlinear regression with normalized dose-response fit using GraphPad Prism 5.

Structure (SMILES) | HIF1α and HIF2α induction in liver, kidney and heart ([1]; 1 h) | HIF1α and HIF2α induction in the brain ([1]; 1 h) | HIF1α induction in mouse liver ([1]; IOX2 37.7 mg/kg, IOX3 30 mg/kg (equivalent molar dose), 1 h and […]) | displacement of [13C]-2OG from PHD2 [2] | displacement of [13C]-CODD from PHD2 [2] | IC50 [3] [µM] | IC50 [4] [µM] | IC50 [5] [µM] | HIF1α and HIF2α induction in the liver and brain, dose dependence ([1]; 1 h, 17.5 to 70 mg/kg)
O=C(O)CNC(=O)c1c(O)c2ccccc2n(Cc2ccccc2)c1=O [IOX2] | strongest induction | not | induced in mouse liver after 1 h | displaces 2OG | not displaced |  |  |  | 
O=C(O)c1ccc(-n2[nH]cc(-n3ccnn3)c2=O)nc1 [compound 1, 6-(5-oxo-4-(1H-1,2,3-triazol-1-yl)-2,5-dihydro-1H-pyrazol-1-yl)pyridine-3-carbocylic acid hydrochloride] |  |  |  |  |  | > 20 | > 100 | > 20 | 
CC(C)(C)OC(=O)c1ccc(-n2[nH]cc(-n3ccnn3)c2=O)nc1 [IOX4, t-Butyl 6-(5-oxo-4-(1H-1,2,3-triazol-1-yl)-2,5-dihydro-1H-pyrazol-1-yl)nicotinate] | induction of HIF1α and HIF2α | induced |  | displaces 2OG | remained bound | 1.4 | > 100 | > 20 | Dose-dependent induction

From publication PMC4492579, “Potent and Selective Triazole-Based Inhibitors of the Hypoxia-Inducible Factor Prolyl-Hydroxylases with Activity in the Murine Brain” (PLoS ONE, 2015)
